Laboratory results: ChEMBL document CHEMBL4020835, “Optimization of Metabolic and Renal Clearance in a Series of Indole Acid Direct Activators of 5'-Adenosine Monophosphate-Activated Protein Kinase (AMPK)” (J Med Chem, 2018)
≈ marks a conversion by molar mass, not a printed value.

What was measured:
physchem [1] = assay: physchem
physchem [2] = conditions: buffer, pH 7.4
[3] = Drug excretion in cynomolgus monkey urine assessed as compound recovered at 1 mg/kg, iv measured over 24 hrs by LC/MS analysis; assay type: ADME, organism-based, Macaca fascicularis; conditions: read-out: Drug recovery
[4] = Thermodynamic solubility of the compound in sodium phosphate buffer at pH 7.4 after 24 hrs by nitrogen detection method; assay type: physicochemical; conditions: read-out: Therm_solubility
[5] = Volume of distribution at steady state in Wistar Han rat at 1 mg/kg, iv via bolus dose measured up to 24 hrs post dose by LC-MS/MS analysis; assay type: ADME, organism-based; conditions: in vivo, read-out: Vdss
[6] = Volume of distribution at steady state in cynomolgus monkey at 1 mg/kg, iv via bolus dose measured up to 24 hrs post dose by LC-MS/MS analysis; assay type: ADME, organism-based, Macaca fascicularis; conditions: in vivo, read-out: Vdss
[7] = Cmax in Wistar Han rat at 3 mg/kg via oral gavage measured up to 24 hrs post dose by LC-MS/MS analysis; assay type: ADME, organism-based; set-up: dose 3 mg/kg, route oral; conditions: in vivo
[8] = Cmax in cynomolgus monkey at 3 mg/kg via oral gavage measured up to 24 hrs post dose by LC-MS/MS analysis; assay type: ADME, organism-based, Macaca fascicularis; set-up: dose 3 mg/kg, route oral; conditions: in vivo
[9] = Tmax in Wistar Han rat at 3 mg/kg via oral gavage by LC-MS/MS analysis; assay type: ADME, organism-based; conditions: in vivo
[10] = Tmax in cynomolgus monkey at 3 mg/kg via oral gavage by LC-MS/MS analysis; assay type: ADME, organism-based, Macaca fascicularis; conditions: in vivo
[11] = (§1) AUC (0 to 24 hrs) in Wistar Han rat at 1 mg/kg, iv via bolus dose measured up to 24 hrs post dose by LC-MS/MS analysis; assay type: ADME, organism-based; set-up: time < 24 hr, dose 1 mg/kg, route intravenous; conditions: Wistar Han, in vivo
[12] = (§2) AUC (0 to 24 hrs) in Wistar Han rat at 3 mg/kg via oral gavage measured up to 24 hrs post dose by LC-MS/MS analysis; assay type: ADME, organism-based; set-up: dose 3 mg/kg, time < 24 hr, route oral; conditions: Wistar Han, in vivo
[13] = AUC (0 to 24 hrs) in cynomolgus monkey at 1 mg/kg, iv via bolus dose measured up to 24 hrs post dose by LC-MS/MS analysis; assay type: ADME, organism-based, Macaca fascicularis; set-up: time < 24 hr, dose 1 mg/kg, route intravenous; conditions: in vivo
[14] = AUC (0 to 24 hrs) in cynomolgus monkey at 3 mg/kg via oral gavage measured up to 24 hrs post dose by LC-MS/MS analysis; assay type: ADME, organism-based, Macaca fascicularis; set-up: time < 24 hr, dose 3 mg/kg, route oral; conditions: in vivo
[15] = (§3) Oral bioavailability in Wistar Han rat at 3 mg/kg via gavage measured up to 24 hrs post dose by LC-MS/MS analysis; assay type: ADME, organism-based; conditions: Wistar Han, in vivo
[16] = Oral bioavailability in cynomolgus monkey at 3 mg/kg via gavage measured up to 24 hrs post dose by LC-MS/MS analysis; assay type: ADME, organism-based, Macaca fascicularis; conditions: in vivo
in vivo = conditions: Wistar Han, rat, urine, iv, 1 mg/kg
Rattus norvegicus [17] = assay: as §1; assay type: ADME, organism-based; set-up: time < 24 hr, dose 1 mg/kg, route intravenous; conditions: in vivo, 24 h
Rattus norvegicus [18] = assay: as §2; assay type: ADME, organism-based; set-up: dose 3 mg/kg, time < 24 hr, route oral; conditions: in vivo, 24 h
Rattus norvegicus [19] = assay: as §3; assay type: ADME, organism-based; conditions: in vivo, 24 h
[20] = rat, in vivo, iv, 1 mg/kg, 24 h

COc1ccc(-c2cc3c(C(=O)O)c[nH]c3cc2Cl)c(OC)n1
pKa (physchem [1]): 4.8
logD (physchem [2]): 2.1

O=C(O)c1c[nH]c2cc(F)c(-c3ccc([C@@H]4CCCCO4)cc3)c(F)c12
dose excreted at 24 h [3]: 2.2%
solubility thermodynamic at 24 h [4]: 14 µM (≈ 5 µg/mL)
Vd [5]: 0.31 L/kg
Vd [6]: 0.3 L/kg
Cmax [7]: 1890 ng/mL
Cmax [8]: 8180 ng/mL
Tmax [9]: 2.7 h
Tmax [10]: 2 h
AUC(0-t) at 24 h [11]: 16400 ng·h/mL
AUC(0-t) at 24 h [12]: 12800 ng·h/mL
AUC(0-t) at 24 h [13]: 35900 ng·h/mL
AUC(0-t) at 24 h [14]: 91600 ng·h/mL
bioavailability [15]: 26%
bioavailability [16]: 85%
dose excreted at 24 h (in vivo): 1.6%
pKa (physchem [1]): 5
logD (physchem [2]): 1.9

COCCOc1ccc(-c2cc3c(C(=O)O)c[nH]c3cc2Cl)cc1
pKa (physchem [1]): 5
logD (physchem [2]): 1.8

O=C(O)c1c[nH]c2cc(F)c(-c3ccc([C@H]4CCCCO4)cc3)c(F)c12
logD (physchem [2]): 2

O=C(O)c1c[nH]c2cc(Cl)c(-c3ccc(OCCCN4CCOCC4)cc3)cc12
dose excreted at 24 h (in vivo): 12%
pKa (physchem [1]): 5.4 to 7.1
logD (physchem [2]): 1.8

CN(C)c1ccc(-c2cc3c(C(=O)O)c[nH]c3cc2Cl)cn1
pKa (physchem [1]): 4.7 to 6.2
logD (physchem [2]): 1.7

COc1nc(N(C)C)ccc1-c1cc2c(C(=O)O)c[nH]c2cc1Cl
dose excreted at 24 h [3]: < 1%
solubility thermodynamic at 24 h [4]: 120 µM (≈ 41.5 µg/mL)
Vd [5]: 0.1 L/kg
Vd [6]: 0.46 L/kg
Cmax [7]: 10200 ng/mL
Cmax [8]: 2540 ng/mL
Tmax [9]: 5.5 h
Tmax [10]: 1.5 h
AUC (Rattus norvegicus [17]): 254000 ng·h/mL
AUC (Rattus norvegicus [18]): 160000 ng·h/mL
AUC(0-t) at 24 h [13]: 15500 ng·h/mL
AUC(0-t) at 24 h [14]: 31200 ng·h/mL
F (Rattus norvegicus [19]): 52%
bioavailability [16]: 67%
Drug recovery [20]: 1 ng/mL
pKa (physchem [1]): 2.6 to 4.9
logD (physchem [2]): 2.3

COc1ccc(-c2cc3c(C(=O)O)c[nH]c3cc2Cl)cn1
pKa (physchem [1]): 2.4 to 4.9
logD (physchem [2]): 1.8

O=C(O)c1c[nH]c2cc(F)c(-c3ccc(C4(O)CCC4)cc3)c(F)c12
dose excreted at 24 h (in vivo): 10.7%
pKa (physchem [1]): 4.9
logD (physchem [2]): 1.3

O=C(O)c1c[nH]c2cc(Cl)c(-c3ccc(C4CCCCO4)cc3)cc12 (stereo unspecified)
pKa (physchem [1]): 4.9
logD (physchem [2]): 2.8

O=C(O)c1c[nH]c2cc(Cl)c(-c3ccc(OCCO)cc3)cc12
dose excreted at 24 h (in vivo): 10%
pKa (physchem [1]): 4.8
logD (physchem [2]): 1.1

N#Cc1cc2[nH]cc(C(=O)O)c2cc1-c1ccc(C2(O)CCC2)cc1
pKa (physchem [1]): 4.6
logD (physchem [2]): 1.1
